We go through 1 compound from article PMC9983306, “Structurally Defined Water‐Soluble Metallofullerene Derivatives towards Biomedical Applications” (Angewandte Chemie (International Ed. in English), 2022).

The nature of this data set: T1 relaxivity by NMR inversion-recovery. Type of data set: physicochemical. Particulars: per molecule concentration. How it is done: The T 1 relaxivity values of water‐soluble Gd MBTs were tested on 60 MHz (1.4 T) and 300 MHz (7.1 T) NMR spectrometers (Table S1), together with a representative commercial GBCA gadodiamide (i.e., Omniscan^TM). […] The enhanced contrast was directly visualized on a 1.0 T MRI scanner, with 20 μM and 5 μM 8 d, 8 d′, 8 e, and gadodiamide (Figure 5a), and the imaging contrast is consistent with the measured relaxivity values. The preclusion of ion leakage by the robust EMF cage dictates that the real limiting factor of MBT contrast agents is the toxicity of the MBT structure, not individual Gd^3+ ions, which means the molecular relaxivity of the MBTs is the more appropriate and relevant parameter for clinical evaluations. […]
Dynamic light scatt ering ex periments w ere performed using a Malvern Z etasizer Nano Z S90 instrument w ith a standard laser source (4mW, 633nm), to measure the hydrodynamic s ize of the aggregates formed by the samples in s olution. 1 uM sample concentrations were used for all the samples measured. […]
Samples 8b, 8b′ and 8c (16 µM, or 16800 ppb Lu) were taken in dialysis bags (MWCO = 1kD) and dialyzed against 1 50 mL PBS 1x f or 7 days without changing diasylate (outside solution in the beaker). […] With a detection limit < 0.1 ppb, no Lu3+ ions w ere detected in the three solutions, confirming the cage confinement of the metal ions. […]

As to `CNC(=O)CN(CCN(CCN(CC(=O)[O-])CC(=O)NC)CC(=O)[O-])CC(=O)[O-].[Gd+3]` [gadodiamide], the “r1 (1.4 T), T1 relaxivity” value (60 MHz (1.4 T) NMR) is 4.4 mM⁻¹ s⁻¹. Besides, the “r1 (7.1 T), T1 relaxivity” value (300 MHz (7.1 T) NMR) is on record as 3.9 mM-1S-1.
